Experimental data published in patent publication US12583861B2, “Derivatives of imidazo[4,5-d]pyridazine, their preparation and their therapeutic application” (SANOFI, priority 2021, dated 2026).
Where a name gives a salt, the structure may show the parent alone. Read-outs that look alike come from different tables or passages of the source.

Experiments:
human TLR8 = target: T1, human TLR8 (Homo sapiens, UniProt Q9NR97); assay: HEK-Blue hTLR8 reporter cell assay (SEAP, NF-kB/AP-1) for stimulation of human TLR8; assay type: cell-based; conditions: HEK-Blue hTLR8 cells; for activation at 20 µM: 24 h, at 20000 nM; for EC50: 24 h incubation, SEAP readout, read-out: TLR8_EC50
T1 construct: host or cells: HEK293 (HEK-Blue hTLR8)
T1 sequence (Q9NR97 27-1041): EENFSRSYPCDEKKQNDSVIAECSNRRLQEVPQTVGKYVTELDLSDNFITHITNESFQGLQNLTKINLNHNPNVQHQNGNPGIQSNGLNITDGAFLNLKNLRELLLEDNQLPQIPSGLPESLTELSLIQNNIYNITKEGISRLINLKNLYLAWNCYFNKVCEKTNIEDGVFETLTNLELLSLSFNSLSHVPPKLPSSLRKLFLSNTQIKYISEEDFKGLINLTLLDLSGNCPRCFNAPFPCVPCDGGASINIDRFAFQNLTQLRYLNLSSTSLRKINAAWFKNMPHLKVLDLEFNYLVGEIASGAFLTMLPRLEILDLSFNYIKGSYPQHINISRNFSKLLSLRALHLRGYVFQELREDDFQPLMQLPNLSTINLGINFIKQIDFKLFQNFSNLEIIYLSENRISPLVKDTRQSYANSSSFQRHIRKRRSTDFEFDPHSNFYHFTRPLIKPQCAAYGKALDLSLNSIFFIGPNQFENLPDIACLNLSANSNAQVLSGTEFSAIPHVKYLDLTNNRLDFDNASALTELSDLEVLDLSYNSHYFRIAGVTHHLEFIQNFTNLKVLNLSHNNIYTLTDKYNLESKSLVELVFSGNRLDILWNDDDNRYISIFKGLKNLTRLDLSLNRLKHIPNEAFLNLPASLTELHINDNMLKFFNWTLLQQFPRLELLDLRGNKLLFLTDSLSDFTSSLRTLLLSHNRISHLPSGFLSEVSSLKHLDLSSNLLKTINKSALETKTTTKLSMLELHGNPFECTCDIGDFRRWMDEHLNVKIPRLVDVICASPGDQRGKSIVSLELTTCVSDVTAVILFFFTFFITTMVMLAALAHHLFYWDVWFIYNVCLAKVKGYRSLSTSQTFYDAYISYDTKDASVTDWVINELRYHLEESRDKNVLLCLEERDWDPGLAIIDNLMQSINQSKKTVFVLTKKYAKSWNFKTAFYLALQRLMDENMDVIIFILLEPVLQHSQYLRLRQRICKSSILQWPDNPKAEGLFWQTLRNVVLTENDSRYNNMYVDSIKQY
Summary of the method: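 Stimulation is quantified as secreted alkaline phosphatase in supernatant using QUANTI-Blue™ substrate. Reporter HEK293 line co-transfected with hTLR8 and SEAP under an IFN-β minimal promoter with five NF-κB/AP-1 sites; 3.10E4 cells/well, 18 to 24 h pre-culture at 37° C. before compounds.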

human TLR7 = target: T2, human TLR7 (Homo sapiens, UniProt Q9NYK1); assay: HEK-Blue hTLR7 reporter cell assay (SEAP, NF-kB/AP-1) for stimulation of human TLR7; assay type: cell-based; conditions: HEK-Blue hTLR7 cells; for EC50: read-out: TLR7_EC50; for activation at 20 µM: 24 h, at 20000 nM
T2 construct: host or cells: HEK293 (HEK-Blue hTLR7)
T2 sequence (Q9NYK1 27-1049): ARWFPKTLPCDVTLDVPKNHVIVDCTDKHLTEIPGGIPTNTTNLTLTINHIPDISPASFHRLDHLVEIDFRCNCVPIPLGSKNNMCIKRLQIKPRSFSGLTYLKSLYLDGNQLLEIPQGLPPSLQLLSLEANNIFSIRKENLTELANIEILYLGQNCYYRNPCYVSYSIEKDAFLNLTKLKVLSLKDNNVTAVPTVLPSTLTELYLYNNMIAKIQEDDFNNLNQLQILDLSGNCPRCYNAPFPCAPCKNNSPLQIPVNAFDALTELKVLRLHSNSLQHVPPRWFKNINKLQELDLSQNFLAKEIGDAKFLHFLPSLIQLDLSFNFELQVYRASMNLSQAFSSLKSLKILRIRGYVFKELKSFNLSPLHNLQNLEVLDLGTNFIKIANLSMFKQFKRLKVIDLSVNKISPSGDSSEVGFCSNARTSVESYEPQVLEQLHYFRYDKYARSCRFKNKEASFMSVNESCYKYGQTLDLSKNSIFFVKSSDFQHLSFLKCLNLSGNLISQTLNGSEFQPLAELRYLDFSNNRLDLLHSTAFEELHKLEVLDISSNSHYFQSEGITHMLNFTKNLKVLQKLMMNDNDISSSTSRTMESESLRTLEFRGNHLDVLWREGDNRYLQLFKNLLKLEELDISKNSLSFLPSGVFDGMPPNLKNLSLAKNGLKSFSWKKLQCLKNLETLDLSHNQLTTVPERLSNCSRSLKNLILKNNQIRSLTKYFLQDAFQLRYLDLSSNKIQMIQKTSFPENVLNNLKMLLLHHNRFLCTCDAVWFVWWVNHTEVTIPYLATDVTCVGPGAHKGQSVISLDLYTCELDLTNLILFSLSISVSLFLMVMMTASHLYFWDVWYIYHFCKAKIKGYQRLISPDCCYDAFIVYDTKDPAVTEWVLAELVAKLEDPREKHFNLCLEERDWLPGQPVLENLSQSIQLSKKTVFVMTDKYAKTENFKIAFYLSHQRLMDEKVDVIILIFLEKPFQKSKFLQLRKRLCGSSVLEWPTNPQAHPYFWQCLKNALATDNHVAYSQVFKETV
Summary of the method: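 Activity expressed as EC50 for half-maximal SEAP induction. Compounds, serially diluted 3-fold from 20 to 0.01 μM, were incubated 24 h at 37 °C, 5% CO2 with HEK-Blue hTLR7 reporter cells (3.10E4/well, plated 18–24 h earlier); supernatant developed with QUANTI-Blue.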

activation at 20 µM (human TLR8) [%] | EC50 (human TLR7; μM) [µM] | activation at 20 µM (human TLR7) [%] | EC50 (human TLR8) [nM] | EC50 (human TLR7; 24 h incubation, SEAP readout) [µM] | Structure (SMILES)
14.7 | > 20 |  |  |  | CCCCc1nc2c(N)nnc(C3=CCNC3)c2n1Cc1ccc(CN)cc1 [Compound 144, 1-[[4-(aminomethyl)phenyl]methyl]-2-butyl-7-(2,5-dihydro-1H-pyrrol-3-yl)imidazo[4,5-d]pyridazin-4-amine]
11.7 |  | 2.2 |  |  | CCCCc1nc2c(N)nnc(C3CCNC3)c2n1Cc1ccc(CN)cc1 (stereo not drawn) [Compound 145, 1-[[4-(aminomethyl)phenyl]methyl]-2-butyl-7-pyrrolidin-3-yl-imidazo[4,5-d]pyridazin-4-amine]
 |  |  | > 20000 | 0.191 | CCCCc1nc2c(N)nnc(OC(C)C)c2n1CCCCCCN [Compound 146, 3-(6-aminohexyl)-2-butyl-4-isopropoxy-imidazo[4,5-d]pyridazin-7-amine dihydrochloride salt]
 |  |  | 7720 | 0.0204 | CCCCc1nc2c(N)nnc(OC(C)C)c2n1CCCCCCNC1CCOCC1 [Compound 147, 2-butyl-4-isopropoxy-3-[6-(tetrahydropyran-4-ylamino)hexyl]imidazo[4,5-d]pyridazin-7-amine; dihydrochloride]
 |  |  | > 20000 | 0.0346 | CCCCc1nc2c(N)nnc(OC(C)C)c2n1CCCCCCN(C(C)=O)C1CCOCC1 [Compound 148, N-[6-(7-amino-2-butyl-4-isopropoxy-imidazo[4,5-d]pyridazin-3-yl)hexyl]-N-tetrahydropyran-4-yl-acetamide]
 |  |  | > 20000 | 12.6 | CCCCc1nc2c(N)nnc(OC(C)C)c2n1CCCCN [Compound 149, 3-(4-aminobutyl)-2-butyl-4-isopropoxy-imidazo[4,5-d]pyridazin-7-amine dihydrochloride salt]
 |  |  | 11400 | 2.21 | CCCCc1nc2c(N)nnc(OC(C)C)c2n1CCCCNC1CCOCC1 [Compound 150, 2-butyl-4-isopropoxy-3-[4-(tetrahydropyran-4-ylamino)butyl]imidazo[4,5-d]pyridazin-7-amine hydrochloride salt]
 |  |  | > 20000 | 11.2 | CCCCc1nc2c(N)nnc(OC(C)C)c2n1CCCCN(C(C)=O)C1CCOCC1 [Compound 151, N-[4-(7-amino-2-butyl-4-isopropoxy-imidazo[4,5-d]pyridazin-3-yl)butyl]-N-tetrahydropyran-4-yl-acetamide]
 |  |  | > 20000 | 4.39 | CCCCc1nc2c(N)nnc(OC(C)C)c2n1CCCCNC1CS(=O)(=O)C1 [Compound 152, 2-butyl-3-[4-[(1,1-dioxothietan-3-yl)amino]butyl]-4-isopropoxy-imidazo[4,5-d]pyridazin-7-amine]
 |  |  | > 20000 | 18.4 | CCCCc1nc2c(N)nnc(OC(C)C)c2n1CCCCN(C(C)=O)C1CS(=O)(=O)C1 [Compound 153, N-[4-(7-amino-2-butyl-4-isopropoxy-imidazo[4,5-d]pyridazin-3-yl)butyl]-N-(1,1-dioxothietan-3-yl)acetamide]
 |  |  | > 20000 | 0.596 | CCCCc1nc2c(N)nnc(OC(C)C)c2n1CCCCCCN(C(C)=O)C1CS(=O)(=O)C1 [Compound 155, N-[6-(7-amino-2-butyl-4-isopropoxy-imidazo[4,5-d]pyridazin-3-yl)hexyl]-N-(1,1-dioxothietan-3-yl)acetamide hydrochloride salt]
 |  |  | 5 | 0.075 | CCCCc1nc2c(N)nnc(OC(C)C)c2n1CC(C)(CO)CO [Compound 156, 2-[(7-amino-2-butyl-4-isopropoxy-imidazo[4,5-d]pyridazin-3-yl)methyl]-2-methyl-propane-1,3-diol; hydrochloride]
 |  |  | 7 | 0.531 | CCCCc1nc2c(N)nnc(OC(C)C)c2n1CC(CO)CO [Compound 157, 2-[(7-amino-2-butyl-4-isopropoxy-imidazo[4,5-d]pyridazin-3-yl)methyl]propane-1,3-diol; hydrochloride]
 |  |  | > 20000 | 0.717 | CCCc1nc2c(N)nnc(OC(C)C)c2n1Cc1ccc(CN)cc1 [Compound 158, 1-(4-(aminomethyl)benzyl)-7-isopropoxy-2-propyl-1H-imidazo[4,5-d]pyridazin-4-amine]
 |  |  | > 20000 | 0.247 | CCOCc1nc2c(N)nnc(OC(C)C)c2n1Cc1ccc(CN)cc1 [Compound 159, 1-(4-(aminomethyl)benzyl)-2-(ethoxymethyl)-7-isopropoxy-1H-imidazo[4,5-d]pyridazin-4-amine]
18 |  | 35 |  |  | Cc1nc2c(N)nnc(OC(C)C)c2n1Cc1ccc(CN)cc1 [Compound 160, 1-(4-(aminomethyl)benzyl)-7-isopropoxy-2-methyl-1H-imidazo[4,5-d]pyridazin-4-amine]
 |  |  | 398 | 0.205 | CCCSc1nc2c(N)nnc(OC(C)C)c2n1Cc1ccc(CN)cc1 [Compound 161, 3-[[4-(aminomethyl)phenyl]methyl]-4-isopropoxy-2-propylsulfanyl-imidazo[4,5-d]pyridazin-7-amine]
 |  |  | > 20000 | 6.7 | CCC[S+]([O-])c1nc2c(N)nnc(OC(C)C)c2n1Cc1ccc(CN)cc1 (stereo not drawn) [Compound 162, 3-[[4-(aminomethyl)phenyl]methyl]-4-isopropoxy-2-propylsulfinyl-imidazo[4,5-d]pyridazin-7-amine]
15.4 |  | 16.7 |  |  | CCCNc1nc2c(N)nnc(OC(C)C)c2n1Cc1ccc(CN)cc1 [Compound 163, 3-[[4-(aminomethyl)phenyl]methyl]-4-isopropoxy-N2-propyl-imidazo[4,5-d]pyridazine-2,7-diamine]
10.8 |  | 4.8 |  |  | CCNCc1nc2c(N)nnc(OC(C)C)c2n1Cc1ccc(CN)cc1 [Compound 164, 3-[[4-(aminomethyl)phenyl]methyl]-2-(ethylaminomethyl)-4-isopropoxy-imidazo[4,5-d]pyridazin-7-amine]
 |  |  | > 20000 | 1.57 | CCCCc1nc2c(N)nnc(OC(C)C)c2n1CC1CCNCC1 [Compound 165, 2-butyl-7-isopropoxy-1-(piperidin-4-ylmethyl)-1H-imidazo[4,5-d]pyridazin-4-amine]
